According to patent US20230248671A1, “USE OF BETA-1 ADRENERGIC RECEPTOR ANTAGONIST FOR PREPARING COMPOSITIONS FOR REDUCING EPITHELIAL CELL DAMAGE INDUCED BY EPIDERMAL GROWTH FACTOR RECEPTOR INHIBITORS AND INHIBITING CANCER CELLS” (CHANG GUNG MEMORIAL HOSPITAL, LINKOU, priority 2020, published 2023):

Key:
in vitro = conditions: human
Experimental: (§1) A fixed number (7×10^4 cells/dish) of HaCaT cells (human skin keratinocytes) were seeded in each well of a multi-well plate (24 wells). […] MTT (3-(4,5-dimethylthiazol-2-yl)-2,5-diphenyltetrazolium bromide and 300λ bromide-3-(4,5-dimethyl-2-thiazole)-2,5-diphenyltetrazolium) were added and 1 hour later, the supernatant was removed, DMSO was added and the resultant was shook. 200 λ/well of liquid was extracted and added into another multi-well plate (96 wells). ELISA was used to measure the absorbance value (OD570, optical density 570 nm) and calculate the cell cell viability. The experiment was repeated 3 times.
(§2) The MTT test was carried out to examine the effect of β-1 adrenergic receptor antagonists on epithelial cells.
(§3) The MTT test was carried out to examine the effect of first administering β-1 adrenergic receptor antagonist followed by EGFR-TKI on epithelial cells.
(§4) A MTT test was conducted to examine the effect of simultaneously administering a β-1 adrenergic receptor antagonist and an EGFR-TKI on epithelial cells. […] Referring to FIG. 4, FIG. 4 is a schematic diagram showing the c epithelial cell viability after simultaneously contacting an EGFR-TKI and a β-1 adrenergic receptor antagonist with normal epithelial cells.
(§5) The effects on HaCaT cells as well as A549 cancer cells was examined.

[1] = tested on: HaCaT cells (human skin keratinocytes); assay: in vitro
Experimental: as §1, §2, §3, §4, §5

[2] = tested on: PC9 cancer cell (EGFR-mutated cancer cell); conditions: afatinib and betaxolol administered simultaneously
Experimental: as §1
(§6) The effect of EGFR-TKI alone and the simultaneous administration of a β-1 adrenergic receptor antagonist and an EGFR-TKI on cancer cells was examined.

EGFRI-induced rosacea = conditions: 0.25% (w/w) topical
Experimental: (§7) Patients with EGFR-TKI or anti-EGFR monoclonal antibodies induced epithelial cell damage, for example, rosacea or papulopustular rash, were recruited. A composition comprising β-1 adrenergic receptor antagonist was formulated for topical use, and was administered to recruited patients to observe its therapeutic effect.

[3] = tested on: EGFR monoclonal antibody-induced papulopustular rash; conditions: 0.25% (w/w) topical, day 30 of treatment
Experimental: as §7

[4] = tested on: A549 cancer cells (EGFR-mutated lung cancer cells); assay: MTT test (cell viability) on A549 cancer cells; format: cell-based
Experimental: as §1, §6, §5

CC(C)NCC(O)COc1ccc(CCOCC2CC2)cc1 (centres unmarked) [Betaxolol, betaxolol]
viability at 24 h, 10 μM (in vitro; Cell viability (%)): 92.8% | viability at 24 h, 20 μM (in vitro; Cell viability (%)): 91.3% | viability at 24 h, 40 μM (in vitro; Cell viability (%)): 91.4% | viability at 24 h, 80 μM (in vitro; Cell viability (%)): 90.1% | viability at 24 h, 100 μM (in vitro; Cell viability (%)): 88.1% | viability at 24 h (in vitro; HaCaT cell viability, β-1 adrenergic receptor antagonist only): 100% | HaCaT cell viability compared with afatinib only ([1]; betaxolol and afatinib added simultaneously, 24 hours): much improved | effect on cell viability of normal epithelial cells (in words) ([1]; betaxolol only, up to 100 μM): basically does not affect the cell viability | inhibitory effect and cytotoxicity on PC9 compared with afatinib only [2]: inhibitory effect is better and cytotoxicity is higher | improvement of osimertinib-induced rosacea (EGFRI-induced rosacea; 4th day of treatment): significantly improved | improvement of rosacea (FIG. 12) (EGFRI-induced rosacea; 7th day of treatment): improved significantly | improvement of afatinib-induced rosacea (EGFRI-induced rosacea; 14th day of treatment compared to the 1st day): significantly improved | improvement of papules and pustules of Cetuximab-induced papulopustular rash [3]: significantly improved | inhibitory effect and cytotoxicity on A549 compared with afatinib only ([4]; afatinib and betaxolol together): inhibitory effect was better and cytotoxicity is higher | A549 cancer cell viability, betaxolol only ([4]; cells only in contact with betaxolol): 100%

CN(C)C/C=C/C(=O)Nc1cc2c(Nc3ccc(F)c(Cl)c3)ncnc2cc1O[C@H]1CCOC1 [Afatinib, afatinib]
viability at 24 h, 0.1 μM (in vitro): 90.6% | viability at 24 h, 0.5 μM (in vitro): 89.8% | viability at 24 h, 1 μM (in vitro): 87.2% | viability at 24 h, 2.5 μM (in vitro): 64.1% | viability at 24 h, 5 μM (in vitro): 34.8% | viability at 1 µM ([4]; Homo sapiens, A549): 101% | viability at 2.5 µM ([4]; Homo sapiens, A549): 100% | viability at 5 µM ([4]; Homo sapiens, A549): 85.2% | viability at 10 µM ([4]; Homo sapiens, A549): 73.4% | viability at 20 µM ([4]; Homo sapiens, A549): 69.1% | viability at 50 µM ([4]; Homo sapiens, A549): 26.4%

CC(C)(C)NC[C@H](O)COc1nsnc1N1CCOCC1 [timolol, Timolol]
HaCaT cell viability compared with afatinib only ([1]; afatinib concentration fixed, timolol concentration adjusted): significantly decreased | A549 cancer cell viability (change, in words) ([4]; timolol and afatinib simultaneously): did not change significantly | A549 cancer cell viability (change, in words) ([4]; timolol increased to 50 μM, with afatinib): also increased
